Experimental data reported in the supplement of paper PMC10307832.

Assays:
Experiment in all cases: relative viability (nuclei count vs DMSO), 5 days (fraction); higher = more cells survive
[1] = compound: C[C@@H](N)c1ccc(C(=O)Nc2ccnc3[nH]ccc23)cc1 + C[C@]1(O)C[C@@H](c2nc(-c3ccc4ccc(-c5ccccc5)nc4c3)c3c(N)nccn32)C1 [Linsitinib] (partner 1 µM)
How it was run: (§1)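 Values are medians from duplicate plates. Each reflects relative viability, defined as the nuclei count of treated wells over that of vehicle wells. Lung cancer cell lines in 1536-well plates were pin-tool dosed one day after seeding with one drug alone or with a fixed anchor-drug dose plus five library-drug doses (not always all listed) in √10 steps, then fixed, stained and imaged at 4× after 5 days.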

[2] = compound: C1CNCCC1C2=CC(=NN2)C3=CC=NC=C3 + O=C(c1cc(Cc2n[nH]c(=O)c3ccccc23)ccc1F)N1CCN(C(=O)C2CC2)CC1 [Olaparib] (partner 8 µM)
How it was run: as §1

[3] = compound: C1CNCCC1C2=CC(=NN2)C3=CC=NC=C3 + Cc1cc(Nc2cc(N3CCN(C)CC3)nc(Sc3ccc(NC(=O)C4CC4)cc3)n2)n[nH]1 [Tozasertib] (partner 0.1 µM)
How it was run: as §1

[4] = compound: C[C@@H](N)c1ccc(C(=O)Nc2ccnc3[nH]ccc23)cc1 + N=C(N)NC(=N)NCCc1ccccc1 [Phenformin] (partner 250 µM)
How it was run: as §1

Cell Line	relative viability ([1]; first compound 0.04 µM)	relative viability ([1]; first compound 0.1265 µM)	relative viability ([1]; first compound 0.4 µM)	relative viability ([1]; first compound 4 µM)	relative viability ([2]; first compound 0.08 µM)	relative viability ([2]; first compound 0.8 µM)	relative viability ([2]; first compound 2.53 µM)	relative viability ([2]; first compound 8 µM)	relative viability ([3]; first compound 0.08 µM)	relative viability ([3]; first compound 0.8 µM)	relative viability ([3]; first compound 2.53 µM)	relative viability ([3]; first compound 8 µM)	relative viability ([4]; first compound 0.04 µM)	relative viability ([4]; first compound 0.1265 µM)	relative viability ([4]; first compound 0.4 µM)	relative viability ([4]; first compound 4 µM)	relative viability ([1]; first compound 1.265 µM)	relative viability ([4]; first compound 1.265 µM)
NCI-H322M	1.02	1.12	0.93	1.1	0.73	0.716	0.844	0.923	0.461	0.462	0.523	0.503	0.874	0.886	0.871	0.72	–	–
NCI-H661	0.558	0.582	0.623	0.508	0.705	0.757	0.75	0.733	0.38	0.367	0.356	0.345	0.222	0.274	0.247	0.244	0.441	0.224
NCI-H2228	0.63	0.587	0.62	0.82	0.617	0.747	0.575	0.549	0.28	0.191	0.274	0.309	0.354	0.393	0.315	0.357	0.637	0.33
NCI-H1395	1.05	1.14	1.24	0.878	0.46	0.404	0.447	0.522	0.731	0.643	0.813	0.766	0.433	0.497	0.436	0.453	–	0.36
NCI-H520	0.97	1.07	1.05	1.02	0.332	0.356	0.381	0.266	0.395	0.378	0.457	0.457	0.635	0.603	0.702	0.656	1.26	0.404
NCI-H441	0.626	0.571	0.64	0.45	0.422	0.673	0.57	0.567	0.532	0.613	0.727	0.73	0.879	0.995	0.879	0.74	0.483	–
